Data taken from ChEMBL document CHEMBL5523764, “Discovery of NO Donor-Aurovertin Hybrids as Dual Ferroptosis and Apoptosis Inducers for Treating Triple Negative Breast Cancer” (J Med Chem, 2024).
Active and inactive are the calls of the source. The calls are words filed in the database; no cut-off is given here.

Legend:
MDA-MB-231 [1] = experiment: Induction of apoptosis in human MDA-MB-231 cells assessed as viable cells at 0.25 uM by Annexin V-FITC staining based flow cytometric analysis (reference value: 91.03%); assay type: functional; conditions: read-out: Activity
4T1 [2] = experiment: Downregulation of phosphorylated AKT protein level at Ser473 residue in mouse 4T1 cells at 0.02 to 2.5 uM incubated for 24 hrs by Western blot analysis; assay type: functional, cell-based; conditions: dose 0.02-2.5 µM
MDA-MB-231 [3] = experiment: Inhibition of Bcl-xl expression in human MDA-MB-231 cells at 0.25 to 1 uM by Western blot analysis; assay type: functional, cell-based; conditions: dose 0.25-1 µM
[4] = Cytotoxicity against human MCF-10A cells assessed as reduction in cell viability incubated for 72 hrs by MTT assay; assay type: toxicity, cell-based
MDA-MB-231 [5] = experiment: Induction of apoptosis in human MDA-MB-231 cells assessed as late apoptotic cells at 0.25 uM by Annexin V-FITC staining based flow cytometric analysis (reference value: 0.02 %); assay type: functional
[6] = Acute toxicity in ip female ICR mouse assessed as lethal dose measured after 2 days; assay type: organism-based; conditions: in vivo, time 2 day
MDA-MB-231 [7] = experiment: Antitumor activity against human MDA-MB-231 cells xenografted in nude mouse assessed as reduction in tumor weight at 10 mg/kg, ip administered for 30 days relative to control; assay type: functional; set-up: scale not given: the % may be the effect or the level left; conditions: time 30 day
MDA-MB-231 [8] = experiment: Induction of ferroptosis in human MDA-MB-231 cells assessed as decrease in GSH/GSSG ratio incubated for 24 hrs by GSH colorimetric assay; assay type: functional, cell-based; conditions: dose 0.25-1 µM
[9] = Toxicity in nude mouse xenografted with human MDA-MB-231 cells assessed as effect on body weight at 10 to 20 mg/kg, ip administered for 30 days; assay type: organism-based; conditions: in vivo, 720 h, dose 10-20 mg/kg, time 30 day
MDA-MB-231 [10] = experiment: Induction of lipid ROS accumulation in human MDA-MB-231 cells incubated for 24 hrs in presence of Fer-1 by BODIPY-C11 probe based flow cytometric analysis; assay type: functional, cell-based
MDA-MB-231 [11] = experiment: Induction of apoptosis in human MDA-MB-231 cells assessed as late apoptotic cells at 0.5 uM by Annexin V-FITC staining based flow cytometric analysis (reference value: 0.02 %); assay type: functional
MDA-MB-231 [12] = experiment: Antiproliferative activity against human MDA-MB-231 cells assessed as reduction in cell viability incubated for 72 hrs by MTT assay; assay type: functional, cell-based; conditions: MDA-MB-231, 72 h
MDA-MB-231 [13] = experiment: Induction of apoptosis in human MDA-MB-231 cells assessed as necrotic cells at 1 uM by Annexin V-FITC staining based flow cytometric analysis (reference value: 7.98 %); assay type: functional
MDA-MB-231 [14] = experiment: Antiinvasive activity against human MDA-MB-231 cells assessed as inhibition of cell invasion at 0.5 uM measured after 24 hrs by crystal violet staining based transwell invasion assay relative to control; assay type: functional
MDA-MB-231 [15] = experiment: Inhibition of cell adhesion in human MDA-MB-231 cells assessed as rounded form appearance of cells at 0.02 to 0.5 uM incubated for 24 hrs by microscopic analysis; assay type: functional, cell-based; conditions: dose 0.02-0.5 µM
MDA-MB-231 [16] = experiment: Induction of ferroptosis in human MDA-MB-231 cells assessed as decrease in FTH1 expression by Western blot analysis; assay type: functional, cell-based; conditions: dose 0.25-1 µM
[17] = Acute toxicity in female ICR mouse assessed as liver pathological abnormalities at 50 mg/kg, ip measured after 2 days; assay type: organism-based; conditions: in vivo, 48 h, time 2 day
4T1 [18] = experiment: Downregulation of phosphorylated mTOR protein level at Ser2448 residue in mouse 4T1 cells at 0.02 to 2.5 uM incubated for 24 hrs by Western blot analysis; assay type: functional, cell-based; conditions: dose 0.02-2.5 µM
[19] = Acute toxicity in female ICR mouse assessed as effect on behavior at <40 mg/kg, ip measured within 24 hrs; assay type: organism-based; conditions: in vivo
[20] = Acute toxicity in female ICR mouse assessed as effect on body weight at <40 mg/kg, ip measured within 24 hrs; assay type: organism-based; conditions: in vivo
HCC1937 = experiment: Antiproliferative activity against human HCC1937 cells assessed as reduction in cell viability incubated for 72 hrs by MTT assay; assay type: functional, cell-based; conditions: HCC1937, 72 h
[21] = Drug metabolism in nude mouse xenografted with human MDA-MB-231 cells assessed as aurovertin-B release at 10 to 20 mg/kg, ip administered for 30 days by LC-MS/MS analysis; assay type: ADME, organism-based; conditions: in vivo, 720 h, dose 10-20 mg/kg, time 30 day
MDA-MB-231 [22] = experiment: Induction of apoptosis in human MDA-MB-231 cells assessed as early apoptotic cells at 0.5 uM by Annexin V-FITC staining based flow cytometric analysis (reference value: 0.17 %); assay type: functional
MDA-MB-231 [23] = experiment: Induction of apoptosis in human MDA-MB-231 cells assessed as upregulation of PARP-1 expression at 0.25 to 1 uM by Western blot analysis; assay type: functional, cell-based; conditions: dose 0.25-1 µM
MDA-MB-231 [24] = experiment: Induction of ferroptosis in human MDA-MB-231 cells xenografted in nude mouse assessed as reduction in GPX4 level at 10 to 20 mg/kg, ip administered for 30 days by immunohistochemistry analysis; assay type: functional, organism-based; conditions: dose 10-20 mg/kg, time 30.0 day
MDA-MB-231 [25] = experiment: Antiproliferative activity against human MDA-MB-231 cells assessed as inhibition of cell growth at 0.01 to 100 uM incubated for 72 hrs in presence of Fer-1 by MTT assay; assay type: functional, cell-based; conditions: dose 0.01-100 µM
Mitochondria = experiment: Induction of ROS accumulation in mitochondria of human MDA-MB-231 cells at 0.25 to 1 uM by MitoSOX probe based flow cytometric analysis; assay type: functional; conditions: dose 0.25-1 µM
[26] = Drug metabolism in nude mouse xenografted with human MDA-MB-231 cells assessed as metabolite formation at 10 to 20 mg/kg, ip administered for 30 days by LC-MS/MS analysis; assay type: ADME, organism-based; conditions: in vivo, 720 h, dose 10-20 mg/kg, time 30 day
MDA-MB-468 = experiment: Antiproliferative activity against human MDA-MB-468 cells assessed as reduction in cell viability incubated for 72 hrs by MTT assay; assay type: functional, cell-based; conditions: MDA-MB-468, 72 h

CC[C@H]1O[C@@]2(C)[C@H](OC(C)=O)[C@@]1(C)O[C@@H](/C=C/C=C/C=C/c1oc(=O)cc(OC)c1C)[C@@H]2OC(=O)CCC(=O)OC/C=C/COc1no[n+]([O-])c1S(=O)(=O)c1ccccc1
viability at 0.25 µM (MDA-MB-231 [1]): 80.8%
Activity (4T1 [2]): Active
inhibition (MDA-MB-231 [3]): Active
IC50 at 72 h [4]: > 50000 nM
Activity (MDA-MB-231 [5]): 5.82%
LD50 at 48 h [6]: 103 mg/kg
Activity (MDA-MB-231 [7]): 86%
Activity (MDA-MB-231 [8]): Dose-Dependent Effect
Activity [9]: Non-Toxic
Activity (MDA-MB-231 [10]): inactive
Activity (MDA-MB-231 [11]): 8.01%
IC50 (MDA-MB-231 [12]): 630 nM
Activity (MDA-MB-231 [13]): 1.42%
inhibition at 0.5 µM (MDA-MB-231 [14]): 60.7%
inhibition (MDA-MB-231 [15]): Active
Activity (MDA-MB-231 [16]): Dose-Dependent Effect
Activity [17]: Non-Toxic
Activity (4T1 [18]): Active
Activity [19]: Non-Toxic
Activity [20]: Non-Toxic
IC50 (HCC1937): 870 nM
Drug metabolism [21]: Metabolite_Detected
Activity (MDA-MB-231 [22]): 16.23%
Activity (MDA-MB-231 [23]): Active
Activity (MDA-MB-231 [24]): Active
Activity (MDA-MB-231 [25]): inactive
Activity (Mitochondria): Active
Drug metabolism [26]: Metabolite_Detected
IC50 (MDA-MB-468): 450 nM
